Entries after “also recorded” stand apart in the source; their conditions may differ. Like-named read-outs stand apart in the source and are kept apart here.
Assays:
Estrogen Receptor (ER) [1] = target: T1, Estrogen Receptor (ER) (Homo sapiens, UniProt P03372); assay: htSMT of Halo-ER in U2OS cells (fbound, Dfree); assay type: cell-based; settings: for effect of pathway inhibitors on ER fbound / ER movement: retest and dose titration of pathway inhibitors
T1 construct: expressed in transfected cells; host or cells: U2OS
T1 sequence (P03372 1-595): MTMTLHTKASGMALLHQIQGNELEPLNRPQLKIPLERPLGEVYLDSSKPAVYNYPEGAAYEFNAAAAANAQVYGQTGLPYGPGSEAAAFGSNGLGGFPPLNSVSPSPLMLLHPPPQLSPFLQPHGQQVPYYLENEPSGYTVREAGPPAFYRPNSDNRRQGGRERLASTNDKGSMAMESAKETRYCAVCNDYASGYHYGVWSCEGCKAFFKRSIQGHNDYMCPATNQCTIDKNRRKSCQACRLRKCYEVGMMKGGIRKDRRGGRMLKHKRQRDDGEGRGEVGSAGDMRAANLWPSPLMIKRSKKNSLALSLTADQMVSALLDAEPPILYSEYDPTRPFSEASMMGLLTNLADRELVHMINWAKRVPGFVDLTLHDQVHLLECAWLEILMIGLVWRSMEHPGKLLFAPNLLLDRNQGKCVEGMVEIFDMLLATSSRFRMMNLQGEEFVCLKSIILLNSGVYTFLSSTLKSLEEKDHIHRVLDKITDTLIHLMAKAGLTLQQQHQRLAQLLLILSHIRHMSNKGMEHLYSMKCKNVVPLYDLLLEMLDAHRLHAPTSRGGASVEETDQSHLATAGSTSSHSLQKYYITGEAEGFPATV

ER = ER (Homo sapiens, UniProt P03372); assay: Western blot of ER after compound treatment; assay type: cell-based; settings: 100 nM fulvestrant, 24 hours; MCF7, T47d, U2OS Halo-ER
Description: Cells were grown in the same conditions as described previously. […] Cells are lysed in 200 μL 1× Cell Lysis Buffer (catalogue number 9803, Cell Signaling). Protein lysate concentration is then determined using BCA protein assay kit (Catalog number 23225, Pierce™ BCA Protein Assay Kit) following manufacturer instructions. Capillary Western Immunoassay were performed using Jess Protein Simple following manufacturer's instruction (protein simple, USA). Levels of αER (1:100, RM-9101) were normalized to loading control β-tubulin (1:100, NC0244815 LI-COR 92642213, Thermo Fisher). The peaks were analyzed with the Compass software (Protein Simple, USA).

[2] = target: T2, glucocorticoid receptor (GR) (Homo sapiens, UniProt P04150); assay: htSMT of Halo-GR in U2OS cells; assay type: cell-based; settings: 1 μM antagonist, singly or co-administered with cognate agonist
T2 construct: Because U2OS cells express GR endogenously, HaloTag was inserted right before the stop codon of endogenous NR3C1; endogenous in cells; host or cells: U2OS (CRISPR/Cas9 knock-in at the NR3C1 locus)
T2 sequence (P04150 1-777): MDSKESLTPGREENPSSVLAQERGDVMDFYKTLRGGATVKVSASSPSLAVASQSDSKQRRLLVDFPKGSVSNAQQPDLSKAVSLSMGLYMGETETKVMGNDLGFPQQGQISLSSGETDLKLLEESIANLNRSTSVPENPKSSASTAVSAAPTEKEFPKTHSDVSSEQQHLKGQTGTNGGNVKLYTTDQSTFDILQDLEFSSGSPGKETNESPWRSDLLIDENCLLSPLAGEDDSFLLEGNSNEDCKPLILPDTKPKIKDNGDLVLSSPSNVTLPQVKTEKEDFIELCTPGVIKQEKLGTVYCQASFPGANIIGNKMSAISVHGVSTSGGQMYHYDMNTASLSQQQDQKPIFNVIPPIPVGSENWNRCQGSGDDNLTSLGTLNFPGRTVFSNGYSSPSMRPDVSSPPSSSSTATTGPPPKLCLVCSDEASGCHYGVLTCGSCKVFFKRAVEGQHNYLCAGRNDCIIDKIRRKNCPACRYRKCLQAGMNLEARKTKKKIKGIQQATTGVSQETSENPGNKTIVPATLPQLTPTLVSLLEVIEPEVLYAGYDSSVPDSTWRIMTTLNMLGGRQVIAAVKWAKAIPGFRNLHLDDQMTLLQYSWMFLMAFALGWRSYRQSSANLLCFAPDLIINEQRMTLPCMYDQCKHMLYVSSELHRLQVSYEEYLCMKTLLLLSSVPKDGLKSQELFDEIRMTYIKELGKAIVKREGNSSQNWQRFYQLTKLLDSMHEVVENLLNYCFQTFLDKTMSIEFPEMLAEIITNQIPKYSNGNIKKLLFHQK
From the text: Where appropriate, compounds were serially diluted in an Echo Qualified 384-Well Low Dead Volume Source Microplate (0018544, Beckman Coulter) to generate dose-titration source material.

Estrogen Receptor (ER) [3] = target: T1, Estrogen Receptor (ER); assay: kinetic SMT (kSMT) of ER after compound addition; assay type: cell-based; settings: 100 nM compound
Estrogen Receptor (ER) [4] = target: T1, Estrogen Receptor (ER); assay: residence time imaging of ER-Halo (track length survival); assay type: cell-based; settings: 100 nM HSP90 inhibition, normalized to DMSO
androgen receptor (AR) = androgen receptor (AR) (Homo sapiens, UniProt P10275)
androgen receptor (AR), sequence (P10275 whole entry): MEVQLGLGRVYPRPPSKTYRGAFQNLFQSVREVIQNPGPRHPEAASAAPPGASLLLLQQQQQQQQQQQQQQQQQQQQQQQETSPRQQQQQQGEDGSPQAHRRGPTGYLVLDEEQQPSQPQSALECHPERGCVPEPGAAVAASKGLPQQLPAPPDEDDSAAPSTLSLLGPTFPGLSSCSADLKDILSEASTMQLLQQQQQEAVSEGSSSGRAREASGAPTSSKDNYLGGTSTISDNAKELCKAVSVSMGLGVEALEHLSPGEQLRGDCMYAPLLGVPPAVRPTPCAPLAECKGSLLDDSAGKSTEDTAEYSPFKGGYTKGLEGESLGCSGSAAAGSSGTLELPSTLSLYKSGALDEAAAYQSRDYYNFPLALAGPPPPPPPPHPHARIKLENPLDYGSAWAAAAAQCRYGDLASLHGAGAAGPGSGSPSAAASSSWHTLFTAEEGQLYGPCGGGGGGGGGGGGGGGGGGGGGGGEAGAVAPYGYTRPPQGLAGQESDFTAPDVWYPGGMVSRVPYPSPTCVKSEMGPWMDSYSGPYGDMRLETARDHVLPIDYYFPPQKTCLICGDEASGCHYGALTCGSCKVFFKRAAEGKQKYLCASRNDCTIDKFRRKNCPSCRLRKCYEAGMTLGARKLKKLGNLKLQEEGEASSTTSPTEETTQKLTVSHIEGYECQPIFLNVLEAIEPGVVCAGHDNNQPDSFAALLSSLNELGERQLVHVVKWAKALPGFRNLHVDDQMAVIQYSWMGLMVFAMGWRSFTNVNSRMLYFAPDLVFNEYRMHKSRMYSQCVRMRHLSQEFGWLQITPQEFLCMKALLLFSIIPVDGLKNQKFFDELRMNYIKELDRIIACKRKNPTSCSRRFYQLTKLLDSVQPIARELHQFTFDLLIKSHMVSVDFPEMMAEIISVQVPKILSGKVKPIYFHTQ

effect of pathway inhibitors on ER fbound / ER movement (Estrogen Receptor (ER) [1]) | t1/2 of increase in ER fbound (Estrogen Receptor (ER) [3]) [min] | time at which overall effect on ER fbound reaches plateau (Estrogen Receptor (ER) [3]) | Compound | decrease in total number of long binding events (Estrogen Receptor (ER) [4]) | further results
increase in fbound | 19.3 | plateau after an hour | CC(C)c1cc(-c2n[nH]c(=O)n2-c2ccc3c(ccn3C)c2)c(O)cc1O [ganetespib] | four | 
increase in fbound | 17.5 | plateau after an hour | COc1cccc(-c2cc(F)ccc2[C@H]2Cc3nc(N)nc(C)c3C(=O)N2)n1 [HSP990] | two | 

More lines, now with the values behind:

Compound | effect of pathway inhibitors on ER fbound / ER movement (Estrogen Receptor (ER) [1]) | t1/2 of increase in ER fbound (Estrogen Receptor (ER) [3]) [min] | time at which overall effect on ER fbound reaches plateau (Estrogen Receptor (ER) [3]) | decrease in total number of long binding events (Estrogen Receptor (ER) [4]) | further results
C[C@]12CC[C@@H]3c4ccc(O)cc4C[C@@H](CCCCCCCCC[S+]([O-])CCCC(F)(F)C(F)(F)F)[C@H]3[C@@H]1CC[C@@H]2O (some centres unmarked) [fulvestrant] |  |  |  |  | change in ER fbound, bioactive screen (Estrogen Receptor (ER) [1]; 1 μM compound versus DMSO, 5,067-molecule screen): caused an increase in fbound; also recorded: significantly increased fbound; ER degradation by western blot (ER): leads to the degradation of ER
CN(C)c1ccc(C(c2ccc(N(C)C)cc2)c2cc([N+](=O)[O-])ccc2Cl)cc1 [AL082D06] |  |  |  |  | effect on GR chromatin binding (fbound) [2]: decrease in chromatin binding
CC(O)c1cc(C(=O)N[C@@H](C)Cn2ccc(-c3ccc(C#N)c(Cl)c3)n2)[nH]n1 (some centres unmarked) [Darolutamide] |  |  |  |  | effect on AR chromatin binding (fbound) (androgen receptor (AR)): decrease in chromatin binding
4-hydroxytamoxifen |  |  |  |  | change in ER fbound, bioactive screen (Estrogen Receptor (ER) [1]): significantly increased fbound; maximal increase in ER fbound, compared with SERDs fulvestrant and GDC-0927 (Estrogen Receptor (ER) [1]): lower maximal increases in fbound

— patent publication US20250314586A1, “SYSTEMS AND METHODS FOR HIGH THROUGHPUT SINGLE MOLECULE TRACKING IN LIVING CELLS” (EIKON THERAPEUTICS, INC., priority 2022, published 2025)
